In brackets after ≈: the same amount, converted by molar mass. Read-outs that look alike come from different tables or passages of the source.
Tests used:
[1] = tested on: sarcoma SJSA-1 tumor model
Experimental: Test objective: To investigate the antitumor efficacy of the above compounds in an animal tumor model of sarcoma SJSA-1.
(§1) Test drug: Polypeptide conjugate, Irinotecan, Belotecan and normal saline control group.
(§2) Test animals: 6-8 weeks old BALB/c mice, all female.
(§3) SJSA-1 cells were purchased from ATCC and cultured in a DMEM medium containing 10% fetal bovine serum at 37° C. in 5% CO2. Passaging was performed every three days, and cells within 15 generations were used. 2×10^7 corresponding cells were injected into right chests of nude mice subcutaneously. After a volume of the tumors reached at least 100 mm^3, the mice were grouped randomly, with three mice in each group. Then treatment was started, and the day when the treatment was started was the first day. […] The control group was administered with normal saline. Administration was performed once a week for three weeks.
as §3

[2] = MTD determination in mice (Examples 27, 36, 44); type: in vivo
Excerpt: Test animals: 6-8 weeks old mice, all female; mice were grouped randomly, with six mice in each group, administered with drugs at different concentration gradients separately and monitored for 14 d. A mouse was euthanized at a loss of 20% of its initial weight and deemed to have died of poisoning.

[3] = tested on: colo320 colorectal cancer tumor model
Experimental: Test objective: To investigate the antitumor efficacy of the above compounds in an animal tumor model of colo320 colorectal cancer.
as §1, §2
as §3, with “Passaging” for “SJSA-1 cells were purchased from ATCC and cultured in a DMEM medium containing 10% fetal bovine serum at 37° C. in 5% CO2. Passaging”, “used. 7.5×10^6” for “used. 2×10^7”, “least 120” for “least 100”, “for four” for “for three”

[4] = tested on: colo320 (colorectal cancer tissue); test: cells; type: cell-based; details: CCK8, 48 h, Table 6
Experimental: (§4) Different types of cells were cultured with complete media (RPMI1640 (DMEM high sugar medium)+10% fetal bovine serum+1×P/S+sodium pyruvate 1 mM solution) in an incubator at 37° C. and 5% CO2 until the cells grew to a sufficient number, and the cells were collected, centrifuged at 1,000 g for 5 min, resuspended with an appropriate volume of a 10% RMPI1640 (DMEM high sugar medium) medium and adjusted to an appropriate density. In a 96-well culture plate, 100 μL of cell culture fluid containing different concentrations of drugs was added, control wells (0.1% DMSO) with only corresponding drug solvents without drugs, as well as blank wells (Blank) with only the medium but without cells were set, and three parallel wells were set in each group. After that, the cells after cell counting were inoculated onto 96-well culture plates, with 100 μL of cell suspension per well, and an inoculation concentration of the cells was 5,000 cells (100 μL)/well. The plates were then cultured in a CO2 (5%) incubator at 37° C. for 48 h. After 48 h, 10 μL of a cell proliferation staining reagent (CCK8) was added to each well, the plates were incubated in a cell incubator for around 2 h, and an absorbance at 450 nm was detected.
(§5) Cell survival rates and median inhibitory concentrations (IC50) of the drugs on the cells were calculated.

[5] = tested on: A549 (non-small cell lung cancer); test: cells; type: cell-based; details: CCK8, 48 h; for IC50: Homo sapiens, A549
Experimental: as §4, with “serum+1XP/S+sodium” for “serum+1×P/S+sodium”, “counted.” for “adjusted to an appropriate density.”
(§6) Cell survival rates and median inhibitory concentrations of the drugs on the cells were calculated.
as §4, §5

SJSA-1 (sarcoma tissue) = test: cells; type: cell-based; details: CCK8, 48 h; for IC50: Homo sapiens, SJSA-1
Experimental: as §4, with “serum+1XP/S+sodium” for “serum+1×P/S+sodium”, “counted.” for “adjusted to an appropriate density.”
as §6, §4, §5

[6] = tested on: SKBR3 (breast cancer tissue); test: cells; type: cell-based; details: CCK8, 48 h; for IC50: Homo sapiens, SK-BR-3
Experimental: as §4, with “serum+1XP/S+sodium” for “serum+1×P/S+sodium”, “counted.” for “adjusted to an appropriate density.”
as §6, §4, §5

A2780 (ovarian cancer) = test: cells; type: cell-based; details: CCK8, 48 h; for IC50: Homo sapiens, A2780
Experimental: as §4, with “serum+1XP/S+sodium” for “serum+1×P/S+sodium”, “counted.” for “adjusted to an appropriate density.”
as §6, §4, §5

[7] = 5 mg/kg once a week for three weeks, Table 2
[8] = 5 mg/kg once a week for three weeks, Table 7
[9] = mice, monitored for 14 d, Table 4
[10] = mice, monitored for 14 d, Table 9
[11] = 5 mg/kg once a week for four weeks, Table 3
[12] = 5 mg/kg once a week for four weeks, Table 8
[13] = 15 mg/kg once a week for three weeks, Table 2
[14] = 15 mg/kg once a week for three weeks, Table 7
[15] = 15 mg/kg once a week for four weeks, Table 3
[16] = 15 mg/kg once a week for four weeks, Table 8
[17] = Table 13 (Example 42), dose 15 mg/kg, once a week for four weeks, BALB/c mice
[18] = Table 14 (Example 43), dose 15 mg/kg, once a week for four weeks, BALB/c mice

SMILES: CC[C@@]1(O)C(=O)OCc2c1cc1n(c2=O)Cc2c-1nc1ccccc1c2CCNC1CCC1 [D7]
- Mouse weight (%) [1, 7]: −7%
- SJSA-1 (sarcoma tissue) mean tumor volume (mm^3) [1, 7]: 1369.5 mm^3
- SJSA-1 (sarcoma) Growth rate (%) [1, 7]: 1185.01%
- Mouse weight (%) [1, 8]: −7%
- SJSA-1 (sarcoma tissue) growth rate (%) [1, 8]: 1185.01%
- SJSA-1 (sarcoma tissue) mean tumor volume (mm^3) [1, 8]: 1369.5 mm^3
- MTD [2, 9]: 15 mg/kg
- MTD [2, 10]: 15 mg/kg
- Mouse weight (%) [3, 11]: −8%
- colo320 (colorectal cancer cell) growth rate (%) [3, 11]: 1136.64%
- colo320 (colorectal cancer cell) mean tumor volume (mm^3) [3, 11]: 1258.9 mm^3
- Mouse weight (%) [3, 12]: −8%
- colo320 (colorectal cancer cell) growth rate (%) [3, 12]: 1136.64%
- colo320 (colorectal cancer cell) mean tumor volume (mm^3) [3, 12]: 1258.9 mm^3
- IC50 Colorectal cancer tissue (colo320) [4]: 0.017 mg/L (≈ 0.0382 µM)
- IC50 A549 (non-small cell lung cancer) ([5]; Table 1): 0.0074 mg/L (≈ 0.0166 µM)
- IC50 Non-small cell lung cancer tissue (A549) ([5]; Table 6): 0.0074 mg/L (≈ 0.0166 µM)
- IC50 SJSA-1 (sarcoma tissue) (SJSA-1 (sarcoma tissue); Table 1): 0.0084 mg/L (≈ 0.0189 µM)
- IC50 Sarcoma tissue (SJSA-1) (SJSA-1 (sarcoma tissue); Table 6): 0.0084 mg/L (≈ 0.0189 µM)
- IC50 SKBR3 (breast cancer tissue) ([6]; Table 1): 0.016 mg/L (≈ 0.0359 µM)
- IC50 Breast cancer tissue (SKBR3) ([6]; Table 6): 0.016 mg/L (≈ 0.0359 µM)
- IC50 A2780 (ovarian cancer) (A2780 (ovarian cancer); Table 1): 0.0043 mg/L (≈ 0.00965 µM)
- IC50 Ovarian cancer tissue (A2780) (A2780 (ovarian cancer); Table 6): 0.0043 mg/L (≈ 0.00965 µM)

SMILES: CC[C@@]1(O)C(=O)OCc2c1cc1n(c2=O)Cc2c-1nc1ccccc1c2CCNC1CCCC1 [D8]
- Mouse weight (%) [1, 7]: +12%
- SJSA-1 (sarcoma tissue) mean tumor volume (mm^3) [1, 7]: 1497.5 mm^3
- SJSA-1 (sarcoma) Growth rate (%) [1, 7]: 1295.77%
- Mouse weight (%) [1, 8]: +12%
- SJSA-1 (sarcoma tissue) growth rate (%) [1, 8]: 1295.77%
- SJSA-1 (sarcoma tissue) mean tumor volume (mm^3) [1, 8]: 1497.5 mm^3
- MTD [2, 9]: 25 mg/kg
- MTD [2, 10]: 25 mg/kg
- Mouse weight (%) [3, 11]: −6%
- colo320 (colorectal cancer cell) growth rate (%) [3, 11]: 1082.65%
- colo320 (colorectal cancer cell) mean tumor volume (mm^3) [3, 11]: 1199.1 mm^3
- Mouse weight (%) [3, 12]: −6%
- colo320 (colorectal cancer cell) growth rate (%) [3, 12]: 1082.65%
- colo320 (colorectal cancer cell) mean tumor volume (mm^3) [3, 12]: 1199.1 mm^3
- IC50 Colorectal cancer tissue (colo320) [4]: 0.042 mg/L (≈ 0.0914 µM)
- IC50 A549 (non-small cell lung cancer) ([5]; Table 1): 0.016 mg/L (≈ 0.0348 µM)
- IC50 Non-small cell lung cancer tissue (A549) ([5]; Table 6): 0.016 mg/L (≈ 0.0348 µM)
- IC50 SJSA-1 (sarcoma tissue) (SJSA-1 (sarcoma tissue); Table 1): 0.035 mg/L (≈ 0.0762 µM)
- IC50 Sarcoma tissue (SJSA-1) (SJSA-1 (sarcoma tissue); Table 6): 0.035 mg/L (≈ 0.0762 µM)
- IC50 SKBR3 (breast cancer tissue) ([6]; Table 1): 0.047 mg/L (≈ 0.102 µM)
- IC50 Breast cancer tissue (SKBR3) ([6]; Table 6): 0.047 mg/L (≈ 0.102 µM)
- IC50 A2780 (ovarian cancer) (A2780 (ovarian cancer); Table 1): 0.015 mg/L (≈ 0.0326 µM)
- IC50 Ovarian cancer tissue (A2780) (A2780 (ovarian cancer); Table 6): 0.015 mg/L (≈ 0.0326 µM)

SMILES: CCc1c2c(nc3ccc(OC(=O)N4CCC(N5CCCCC5)CC4)cc13)-c1cc3c(c(=O)n1C2)COC(=O)[C@]3(O)CC [Irinotecan, reference compound]
- Mouse weight (%) [1, 13]: +17%
- SJSA-1 (sarcoma) Growth rate (%) [1, 13]: 798.05%
- Mouse weight (%) [1, 14]: +17%
- SJSA-1 (sarcoma tissue) growth rate (%) [1, 14]: 798.05%
- MTD ([2]; female, mouse, in vivo, 'around', read-out: MTD (as stated in dosage instructions)): ~70 mg/kg
- MTD ([2]; female, mouse, in vivo, Table 15 (Example 44), mice, six per group, monitored for 14 d, read-out: MTD): 75 mg/kg
- MTD ([2]; female, mouse, in vivo, mice, monitored for 14 d, Table 4, read-out: MTD): 75 mg/kg
- MTD ([2]; female, mouse, in vivo, mice, monitored for 14 d, Table 9, read-out: MTD): 75 mg/kg
- Mouse weight (%) [3, 15]: +35%
- colo320 (colorectal cancer cell) growth rate (%) [3, 15]: 815.39%
- Mouse weight (%) [3, 16]: +35%
- colo320 (colorectal cancer cell) growth rate (%) [3, 16]: 815.39%
- Mouse weight (%) [3, 17]: +35%
- colo320 (colorectal cancer cell) growth rate (%) [3, 17]: 815.39%
- Mouse weight (%) [3, 18]: +35%
- colo320 (colorectal cancer cell) growth rate (%) [3, 18]: 815.39%
- IC50 ([4]; Homo sapiens, COLO 320): 0.11 mg/L (≈ 0.187 µM)
- IC50 ([5]; Table 1, read-out: IC50 A549 (non-small cell lung cancer)): 0.11 mg/L (≈ 0.187 µM)
- IC50 ([5]; Table 6, read-out: IC50 Non-small cell lung cancer tissue (A549)): 0.11 mg/L (≈ 0.187 µM)
- IC50 (SJSA-1 (sarcoma tissue); Table 1, read-out: IC50 SJSA-1 (sarcoma tissue)): 0.11 mg/L (≈ 0.187 µM)
- IC50 (SJSA-1 (sarcoma tissue); Table 6, read-out: IC50 Sarcoma tissue (SJSA-1)): 0.11 mg/L (≈ 0.187 µM)
- IC50 ([6]; Table 1, read-out: IC50 SKBR3 (breast cancer tissue)): 0.25 mg/L (≈ 0.426 µM)
- IC50 ([6]; Table 6, read-out: IC50 Breast cancer tissue (SKBR3)): 0.25 mg/L (≈ 0.426 µM)
- IC50 (A2780 (ovarian cancer); Table 1, read-out: IC50 A2780 (ovarian cancer)): 0.16 mg/L (≈ 0.273 µM)
- IC50 (A2780 (ovarian cancer); Table 6, read-out: IC50 Ovarian cancer tissue (A2780)): 0.16 mg/L (≈ 0.273 µM)

Source: patent US20250235545A1, “POLYPEPTIDE CONJUGATE AND USE THEREOF” (SHANGHAI CHIXI BIOMEDICAL TECHNOLOGY CO., LTD, priority 2024, published 2025)
